Patent publication US9771341B2, “Piperazine carbamates and methods of making and using same” (Abide Therapeutics, Inc., priority 2015, dated 2017)

How the values were obtained:
Format in all cases: biochemical
[1] = target: T1, ABHD6 (Mus musculus, UniProt Q8R2Y0); test: In vitro competitive activity-based protein profiling (mouse), ABHD6; details: for inhibition at 1 µM: mouse proteome, in vitro, read-out: % Inhibition at 1 μM ABHD6; for IC50: mouse brain membrane fraction or cell lysates, 30 min preincubation at 37° C, FP-Rh probe
T1 construct: Proteomes (mouse brain membrane fraction or cell lysates); from tissue; host or cells: mouse brain membrane fraction (or unspecified cell lysates)
T1 sequence (Q8R2Y0 1-336): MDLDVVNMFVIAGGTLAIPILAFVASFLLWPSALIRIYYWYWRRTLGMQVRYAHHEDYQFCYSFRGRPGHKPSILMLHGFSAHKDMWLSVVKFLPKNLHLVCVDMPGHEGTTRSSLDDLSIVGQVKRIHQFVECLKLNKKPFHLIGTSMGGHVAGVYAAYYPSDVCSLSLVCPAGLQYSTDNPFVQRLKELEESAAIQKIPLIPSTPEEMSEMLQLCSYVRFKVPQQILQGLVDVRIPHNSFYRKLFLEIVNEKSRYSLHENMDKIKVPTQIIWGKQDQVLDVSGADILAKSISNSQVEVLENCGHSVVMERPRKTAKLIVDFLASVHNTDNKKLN
Protocol: (§1) In Vitro Competitive Activity-Based Protein Profiling (Mouse).
(§2) Proteomes (mouse brain membrane fraction or cell lysates) (50 μL, 1.0 mg/mL total protein concentration) were preincubated with varying concentrations of inhibitors at 37° C. After 30 min, FP-Rh (1.0 μL, 50 μM in DMSO) was added and the mixture was incubated for another 30 min at 37° C. Reactions were quenched with SDS loading buffer (50 μL-4×) and run on SDS-PAGE.

[2] = target: T2, MAGL (Mus musculus, UniProt O35678); test: In vitro competitive activity-based protein profiling (mouse), MAGL; details: for inhibition at 1 µM: mouse proteome, in vitro, read-out: % Inhibition at 1 μM MAGL; for IC50: mouse brain membrane fraction or cell lysates, 30 min preincubation at 37° C, FP-Rh probe
T2 construct: Proteomes (mouse brain membrane fraction or cell lysates); from tissue; host or cells: mouse brain membrane fraction (or unspecified cell lysates)
T2 sequence (O35678 1-303): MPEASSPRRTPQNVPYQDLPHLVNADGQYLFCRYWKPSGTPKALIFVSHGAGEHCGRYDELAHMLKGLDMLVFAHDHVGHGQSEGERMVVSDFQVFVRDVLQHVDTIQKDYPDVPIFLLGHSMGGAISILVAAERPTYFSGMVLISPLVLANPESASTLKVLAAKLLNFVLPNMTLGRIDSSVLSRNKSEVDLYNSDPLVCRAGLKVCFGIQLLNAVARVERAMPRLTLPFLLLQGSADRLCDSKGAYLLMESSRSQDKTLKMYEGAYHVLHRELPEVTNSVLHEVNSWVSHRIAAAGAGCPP
Protocol: as §1, §2

[3] = target: T3, FAAH (Mus musculus, UniProt O08914); test: In vitro competitive activity-based protein profiling (mouse), FAAH; details: for inhibition at 1 µM: mouse proteome, in vitro; for IC50: mouse brain membrane fraction or cell lysates, 30 min preincubation at 37° C, FP-Rh probe
T3 construct: Proteomes (mouse brain membrane fraction or cell lysates); from tissue; host or cells: mouse brain membrane fraction (or unspecified cell lysates)
T3 sequence (O08914 1-579): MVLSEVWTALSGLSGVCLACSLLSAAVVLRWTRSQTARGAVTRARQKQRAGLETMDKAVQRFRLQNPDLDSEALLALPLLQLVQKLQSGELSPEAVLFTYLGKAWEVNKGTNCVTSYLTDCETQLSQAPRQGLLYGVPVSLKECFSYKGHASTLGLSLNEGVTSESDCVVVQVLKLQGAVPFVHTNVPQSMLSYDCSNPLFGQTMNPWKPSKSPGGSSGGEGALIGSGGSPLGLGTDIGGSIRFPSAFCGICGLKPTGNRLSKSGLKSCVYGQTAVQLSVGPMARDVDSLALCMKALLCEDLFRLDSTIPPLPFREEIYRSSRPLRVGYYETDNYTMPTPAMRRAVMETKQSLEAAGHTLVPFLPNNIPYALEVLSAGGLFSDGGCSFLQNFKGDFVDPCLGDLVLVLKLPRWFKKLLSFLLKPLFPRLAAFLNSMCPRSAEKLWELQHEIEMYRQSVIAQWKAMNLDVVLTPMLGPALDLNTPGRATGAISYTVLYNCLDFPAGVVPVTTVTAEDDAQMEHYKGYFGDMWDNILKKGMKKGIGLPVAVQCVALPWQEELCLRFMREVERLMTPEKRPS
Protocol: as §1
as §2, with “SDS-PAGE. Following gel imaging, serine hydrolase activity was determined by measuring fluorescent intensity of gel bands corresponding to MAGL, ABHD6 and FAAH using ImageJ 1.43u software.” for “SDS-PAGE.”

Row | inhibition at 1 µM [1] | IC50 [1] | inhibition at 1 µM [2] | IC50 [2] | inhibition at 1 µM [3] | IC50 [3] | Compound
1 | > 75% | < 100 nM | > 75% | < 100 nM | < 25% | > 1000 nM | CC(=O)N1CCN(Cc2cccc(CN3CCN(C(=O)OC(C(F)(F)F)C(F)(F)F)CC3)c2C)CC1 [Example 14, 1,1,1,3,3,3-hexafluoropropan-2-yl 4-(3-((4-acetylpiperazin-1-yl)methyl)-2-methylbenzyl)piperazine-1-carboxylate]
2 | > 75% | 100 to 1000 nM | > 75% | < 100 nM | < 25% | > 1000 nM | Cc1c(CN2CCC(F)CC2)cccc1CN1CCN(C(=O)OC(C(F)(F)F)C(F)(F)F)CC1 [Example 15, 1,1,1,3,3,3-hexafluoropropan-2-yl 4-(3-((4-fluoropiperidin-1-yl)methyl)-2-methylbenzyl)piperazine-1-carboxylate]
3 | > 75% | 100 to 1000 nM | > 75% | 100 to 1000 nM | < 25% | > 1000 nM | CC(=O)N[C@@H]1CCN(Cc2cccc(CN3CCN(C(=O)OC(C(F)(F)F)C(F)(F)F)CC3)c2C)C1 [Example 17, 1,1,1,3,3,3-hexafluoropropan-2-yl (R)-4-(3-((3-acetamidopyrrolidin-1-yl)methyl)-2-methylbenzyl)piperazine-1-carboxylate]
4 | > 75% | 100 to 1000 nM | > 75% | 100 to 1000 nM | < 25% | > 1000 nM | CC(=O)N[C@H]1CCN(Cc2cccc(CN3CCN(C(=O)OC(C(F)(F)F)C(F)(F)F)CC3)c2C)C1 [Example 18, 1,1,1,3,3,3-hexafluoropropan-2-yl (S)-4-(3-((3-acetamidopyrrolidin-1-yl)methyl)-2-methylbenzyl)piperazine-1-carboxylate]
5 | > 75% | 100 to 1000 nM | > 75% | 100 to 1000 nM | < 25% | > 1000 nM | Cc1c(CN2CCN(C(=O)OC(C(F)(F)F)C(F)(F)F)CC2)cccc1CN1CCCC[C@H]1C [Example 19, 1,1,1,3,3,3-hexafluoropropan-2-yl (R)-4-(2-methyl-3-((2-methylpiperidin-1-yl)methyl)benzyl)piperazine-1-carboxylate]
6 | > 75% | 100 to 1000 nM | > 75% | 100 to 1000 nM | < 25% | > 1000 nM | Cc1c(CN2CCN(C(=O)OC(C(F)(F)F)C(F)(F)F)CC2)cccc1CN1CCCC[C@@H]1C [Example 20, 1,1,1,3,3,3-hexafluoropropan-2-yl (S)-4-(2-methyl-3-((2-methylpiperidin-1-yl)methyl)benzyl)piperazine-1-carboxylate]
7 | > 75% | 100 to 1000 nM | > 75% | 100 to 1000 nM | < 25% | > 1000 nM | Cc1c(CN2CCOCC2)cccc1CN1CCN(C(=O)OC(C(F)(F)F)C(F)(F)F)CC1 [Example 21, 1,1,1,3,3,3-hexafluoropropan-2-yl 4-(2-methyl-3-(morpholinomethyl)benzyl)piperazine-1-carboxylate]
8 | > 75% | 100 to 1000 nM | > 75% | < 100 nM | < 25% | > 1000 nM | O=C(OC(C(F)(F)F)C(F)(F)F)N1CCN(Cc2cccc(CN3CCOCC3)c2F)CC1 [Example 22, 1,1,1,3,3,3-hexafluoropropan-2-yl 4-(2-fluoro-3-(morpholinomethyl)benzyl)piperazine-1-carboxylate]
9 | < 25% | > 1000 nM | > 75% | 100 to 1000 nM | < 25% | > 1000 nM | O=C(OC(C(F)(F)F)C(F)(F)F)N1CCN(Cc2ccc(CN3CCCCC3)cc2OC(F)(F)F)CC1 [Example 24, 1,1,1,3,3,3-hexafluoropropan-2-yl 4-(4-(piperidin-1-ylmethyl)-2-(trifluoromethoxy)benzyl)piperazine-1-carboxylate]
10 | < 25% | > 1000 nM | > 75% | 100 to 1000 nM | < 25% | > 1000 nM | O=C(OC(C(F)(F)F)C(F)(F)F)N1CCN(Cc2ccc(CN3CCCC3)cc2OC(F)(F)F)CC1 [Example 25, 1,1,1,3,3,3-hexafluoropropan-2-yl 4-(4-(pyrrolidin-1-ylmethyl)-2-(trifluoromethoxy)benzyl)piperazine-1-carboxylate]
11 | 25 to 75% | 100 to 1000 nM | > 75% | < 100 nM | < 25% | > 1000 nM | O=C(OC(C(F)(F)F)C(F)(F)F)N1CCN(Cc2ccc(N3CC4CCC(C3)O4)cc2F)CC1 [Example 27, 1,1,1,3,3,3-hexafluoropropan-2-yl 4-(4-(8-oxa-3-azabicyclo[3.2.1]octan-3-yl)-2-fluorobenzyl)piperazine-1-carboxylate]
12 | < 25% | > 1000 nM | > 75% | 100 to 1000 nM | < 25% | > 1000 nM | O=C(OC(C(F)(F)F)C(F)(F)F)N1CCN(Cc2ccc(N3CC4CCC(C3)O4)cc2OC(F)(F)F)CC1 [Example 28, 1,1,1,3,3,3-hexafluoropropan-2-yl 4-(4-(8-oxa-3-azabicyclo[3.2.1]octan-3-yl)-2-(trifluoromethoxy)benzyl)piperazine-1-carboxylate]
13 | < 25% | > 1000 nM | > 75% | 100 to 1000 nM | < 25% | > 1000 nM | O=C(OC(C(F)(F)F)C(F)(F)F)N1CCN(Cc2cc(Cl)cc(CN3CCCC3)c2)CC1 [Example 29, 1,1,1,3,3,3-hexafluoropropan-2-yl 4-(3-chloro-5-(pyrrolidin-1-ylmethyl)benzyl)piperazine-1-carboxylate]
14 | < 25% | > 1000 nM | > 75% | 100 to 1000 nM | < 25% | > 1000 nM | CN(C)C(=O)C1CCN(c2cc(Cl)ccc2CN2CCN(C(=O)OC(C(F)(F)F)C(F)(F)F)CC2)CC1 [Example 34, 1,1,1,3,3,3-hexafluoropropan-2-yl 4-(4-chloro-2-(4-(dimethylcarbamoyl)piperidin-1-yl)benzyl)piperazine-1-carboxylate]
15 | > 75% | 100 to 1000 nM | > 75% | < 100 nM | < 25% | > 1000 nM | NC(=O)C1CCN(c2cc(C(F)(F)F)ccc2CN2CCN(C(=O)OC(C(F)(F)F)C(F)(F)F)CC2)CC1 [Example 36, 1,1,1,3,3,3-hexafluoropropan-2-yl 4-(2-(4-carbamoylpiperidin-1-yl)-4-(trifluoromethyl)benzyl)piperazine-1-carboxylate]
16 | < 25% | > 1000 nM | > 75% | 100 to 1000 nM | < 25% | > 1000 nM | O=C(OC(C(F)(F)F)C(F)(F)F)N1CCN(Cc2ccc(Cl)cc2N2CCC(C(=O)N3CCCC3)CC2)CC1 [Example 37, 1,1,1,3,3,3-hexafluoropropan-2-yl 4-(4-chloro-2-(4-(pyrrolidine-1-carbonyl)piperidin-1-yl)benzyl)piperazine-1-carboxylate]
